Patent US20050090402A1, “Use of defined copolymers as adjuvants and agents in the agrotechnical domain” (priority 2001, published 2005)

How the values were obtained:
Format in all cases: in vivo
Details in all cases: bentazone 0.125 kg/ha, no adjuvant, 100 = complete destruction, 0 = no damage
[1] = tested on: soybeans (Glycine max; GLXMA); test: Herbicidal efficacy of bentazone tank mixes, greenhouse post-emergence, soybeans
Experimental: (§1) The copolymers shown in Table 1 were applied by the tank mix method together with Basagran (480 g/l bentazone). The application rate per ha was 0.125 kg of bentazone and 2, 1.0 and 0.5 kg of a.i./ha copolymer or comparative surfactant Wettol LF 700 (alcohol alkoxylate). The herbicidal effect was assessed in a greenhouse experiment. The test plants used were soybeans (Glycine max; GLXMA), Chinese hemp (Abutilon theophrasti; ABUTH), white goosefoot (Chenopodium album; CHEAL) and ladysthumb (Polygonum persicaria; POLPE). These plants were either sown separately for each species or first grown separately as seedlings and transplanted into the experimental containers a few days before the treatment. The experimental containers used were plastic pots containing loamy sand and approximately 3.0% of humus as substrate. […] The application rate for the post-emergence treatment was 0.125 kg a.i./ha bentazone and 2.0, 1.0 or 0.5 kg a.i./ha copolymer or comparative surfactant.
(§2) The test period extended over 2 to 4 weeks. During this time, the plant species were kept specifically at night-time temperatures above 14° C. and day-time temperatures between 20 and 31° C., tended, and their response to the individual treatments was evaluated.
(§3) Evaluation was done using a scale from 0 to 100. […]

[2] = tested on: Chinese hemp (Abutilon theophrasti; ABUTH); test: Herbicidal efficacy of bentazone tank mixes, greenhouse post-emergence, Chinese hemp
Experimental: as §1, §2, §3

[3] = tested on: white goosefoot (Chenopodium album; CHEAL); test: Herbicidal efficacy of bentazone tank mixes, greenhouse post-emergence, white goosefoot
Experimental: as §1, §2, §3

[4] = tested on: ladysthumb (Polygonum persicaria; POLPE); test: Herbicidal efficacy of bentazone tank mixes, greenhouse post-emergence, ladysthumb
Experimental: as §1, §2, §3

CC(C)N1C(=O)c2ccccc2NS1(=O)=O [Bentazone, bentazone]
herbicidal effect GLXMA (scale 0 to 100) [1]: 0 | herbicidal effect ABUTH (scale 0 to 100) [2]: 64 | herbicidal effect CHEAL (scale 0 to 100) [3]: 9 | herbicidal effect POLPE (scale 0 to 100) [4]: 86
